The results in this text go back to patent publication US8518945B2, “Pyrrolopyrazine kinase inhibitors” (Hoffmann-La Roche Inc., priority 2010, dated 2013).

This assay addresses T1, h-jak3(810-1124) (JAK3: Recombinant human kinase domain) (Homo sapiens, UniProt P52333).
T1 construct: jak3(810- 1124)-sf9-c; made in house; host or cells: Sf9
The assay can be described thus: Determination of IC50 of Janus Kinase (JAK) inhibition: JAK3 radioactive end-point 33P-ATP kinase assay. It is filed as biochemical. To be noted: no additive; ATP 1.5 uM, peptide 50 uM, 20 minutes, room temperature; read-out: Ic50 h-jak3(810-1124)-sf9-c: no additive.

T1 sequence (P52333 810-1124): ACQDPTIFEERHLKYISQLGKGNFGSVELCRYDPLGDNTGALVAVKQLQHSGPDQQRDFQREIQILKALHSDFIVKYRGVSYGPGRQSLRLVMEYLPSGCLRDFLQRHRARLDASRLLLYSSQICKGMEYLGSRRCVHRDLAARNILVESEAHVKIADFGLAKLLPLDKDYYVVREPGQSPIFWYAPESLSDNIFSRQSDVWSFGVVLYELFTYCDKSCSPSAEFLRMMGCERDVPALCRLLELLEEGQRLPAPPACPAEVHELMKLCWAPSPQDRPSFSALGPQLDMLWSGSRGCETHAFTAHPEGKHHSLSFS
From the text: Determination of IC50 of Janus Kinase (JAK) Inhibition:
Enzymes and peptide substrate used are described below: • JAK1: Recombinant human kinase domain from Invitrogen (Cat # PV4774) • JAK3: Recombinant human kinase domain from Millipore (Cat # 14-629) or prepared. • JAK2: Recombinant human kinase domain from Millipore (Cat # 14-640) • Substrate: N-terminally biotinylated 14-mer peptide derived from activation loop of JAK1 with sequence of the peptide substrate: Biotin-[sequence]
Assay conditions— used are described below: • Assay Buffer: JAK Kinase Buffer: 50 mM Hepes [pH 7.2], 10 mM MgCl2, 1 mM DTT, 1 mg/ml BSA. The assay was carried out in this buffer. • Assay Format The kinase activity of all three JAK kinases was measured using a radioactive, end-point assay and with trace amounts of ^33P-ATP. The assays were carried out in 96-well polypropylene plates. Experimental Method:
All concentrations were final in the reaction mixture and all incubations were carried at room temperature. […] Final concentration of DMSO in the reaction was 10%. • 2) Compounds were preincubated with enzyme (0.5 nM JAK3 (commercially available), 0.2 nM JAK3 (prepared), 1 nM JAK2, 5 nM JAK1) for 10 minutes. • 3) Reactions were initiated by the addition of a cocktail of the two substrates (ATP and peptide premixed in the JAK Kinase Buffer). In the JAK2/JAK3 assays, ATP and the peptide were used at concentrations of 1.5 uM and 50 uM, respectively. JAK1 assay was carried out at an ATP concentration of 10 uM and a peptide concentration of 50 uM. • 4) The duration of the assay for JAK2 and JAK3 is 20 minutes. JAK1 assay was carried out for 40 minutes. With all three enzymes, reactions were terminated by the addition of 0.5M EDTA to a final concentration of 100 mM. • 5) 25 ul of terminated reactions were transferred to 150 ul of a 7.5% (v/v) slurry of streptavidin-coated sepharose beads in MgCl2- and CaCl2-free 1× Phosphate Buffered Saline containing 50 mM of EDTA in 96-well, 1.2 um MultiScreen-BV filter plates. • 6) After a 30-minute incubation, the beads were washed under vacuum with the following buffers: • a. 3 to 4 washes with 200 ul of 2M NaCl. • b. 3 to 4 washes with 200 ul of 2M NaCl plus 1% (v/v) phosphoric acid. • c. 1 wash with water. • 7) Washed plates were dried in a 60° C. oven for between 1 to 2 hours. • 8) 70 ul of Microscint 20 scintillation fluid was added to each well of filter plates and after at least 30 minutes of incubation, radioactive counts were measured in a Perkinelmer microplate scintillation counter.

As usually defined, the IC50 is the concentration at which inhibition is half-maximal. With `CC(C)(C)[C@@H](NC(=O)c1c[nH]c2ncc(-c3cnn(CC(F)(F)F)c3)nc12)C(=O)N1CCC(C#N)CC1` [Example I-79, 2-[1-(2,2,2-Trifluoro-ethyl)-1H-pyrazol-4-yl]-5H-pyrrolo[2,3-b]pyrazine-7-carboxylic acid [(R)-1-(4-cyano-piperidine-1-carbonyl)-2,2-dimethyl-propyl]-amide], the IC50 was at most 0.32 nM.
To `CC[C@@H](NC(=O)c1c[nH]c2ncc(C3CC3)nc12)C(=O)N1CCCC1` [Example I-3, 2-Cyclopropyl-5H-pyrrolo[2,3-b]pyrazine-7-carboxylic acid [(R)-1-(pyrrolidine-1-carbonyl)-propyl]-amide] belongs 11.7 nM.
`N#CC1CN(C(=O)[C@H](NC(=O)c2c[nH]c3ncc(-c4cc5nccc(OCC(F)(F)F)c5s4)nc23)C2CC2)C1` [Example I-98, 2-[7-(2,2,2-Trifluoro-ethoxy)-thieno[3,2-b]pyridin-2-yl]-5H-pyrrolo[2,3-b]pyrazine-7-carboxylic acid [(R)-2-(3-cyano-azetidin-1-yl)-1-cyclopropyl-2-oxo-ethyl]-amide]: the IC50 worked out at 2.16 nM.
The same measure for `CCn1cc(-c2cnc3[nH]cc(C(=O)N[C@@H](C(=O)N4CCC(C)(O)CC4)C(C)(C)C)c3n2)cn1` [Example I-140, 2-(1-Ethyl-1H-pyrazol-4-yl)-5H-pyrrolo[2,3-b]pyrazine-7-carboxylic acid [(R)-1-(4-hydroxy-4-methyl-piperidine-1-carbonyl)-2,2-dimethyl-propyl]-amide]: 0.68 nM; for `N#CC1CN(C(=O)[C@H](NC(=O)c2c[nH]c3ncc(-c4cc5nccc(Cl)c5s4)nc23)C2CC2)C1` [Example I-96, 2-(7-Chloro-thieno[3,2-b]pyridin-2-yl)-5H-pyrrolo[2,3-b]pyrazine-7-carboxylic acid [(R)-2-(3-cyano-azetidin-1-yl)-1-cyclopropyl-2-oxo-ethyl]-amide]: 0.69 nM.
For the compound `N#CC1CCN(C(=O)[C@H](NC(=O)c2c[nH]c3ncc(-c4cc(OCC5CC5)ccn4)nc23)C2CC2)CC1` [Example I-129, 2-(4-Cyclopropylmethoxy-pyridin-2-yl)-5H-pyrrolo[2,3-b]pyrazine-7-carboxylic acid [(R)-2-(4-cyano-piperidin-1-yl)-1-cyclopropyl-2-oxo-ethyl]-amide], the IC50 worked out at 1.18 nM.
The same measure for `C[C@@H](NC(=O)c1c[nH]c2ncc(C3CC3)nc12)C(=O)N1CCC(F)(F)C1` [Example I-21, 2-Cyclopropyl-5H-pyrrolo[2,3-b]pyrazine-7-carboxylic acid [(R)-2-(3,3-difluoro-pyrrolidin-1-yl)-1-methyl-2-oxo-ethyl]-amide]: 14.9 nM; for `COc1ccnc2cc(-c3cnc4[nH]cc(C(=O)N[C@@H](C(=O)N5CC(C#N)C5)C5CC5)c4n3)sc12` [Example I-99, 2-(7-Methoxy-thieno[3,2-b]pyridin-2-yl)-5H-pyrrolo[2,3-b]pyrazine-7-carboxylic acid [(R)-2-(3-cyano-azetidin-1-yl)-1-cyclopropyl-2-oxo-ethyl]-amide]: 0.78 nM; for `CC(C)(C)[C@@H](NC(=O)c1c[nH]c2ncc(C3CC3)nc12)C(=O)N1CCCCC1` [Example I-32, 2-Cyclopropyl-5H-pyrrolo[2,3-b]pyrazine-7-carboxylic acid [(R)-2,2-dimethyl-1-(piperidine-1-carbonyl)-propyl]-amide]: 0.98 nM.
The same measure for `CCn1cc(-c2cnc3[nH]cc(C(=O)N[C@H](C(=O)N4CCC(C#N)CC4)C4(C(F)(F)F)CC4)c3n2)cn1` [Example I-74, 2-(1-Ethyl-1H-pyrazol-4-yl)-5H-pyrrolo[2,3-b]pyrazine-7-carboxylic acid [(S)-2-(4-cyano-piperidin-1-yl)-2-oxo-1-(1-trifluoromethyl-cyclopropyl)-ethyl]-amide]: 1.13 nM.
In the case of `O=C(NC(C(=O)N1CCCC1)C(F)(F)F)c1c[nH]c2ncc(C3CC3)nc12` (stereo not drawn) [Example I-19, 2-Cyclopropyl-5H-pyrrolo[2,3-b]pyrazine-7-carboxylic acid [2,2,2-trifluoro-1-(pyrrolidine-1-carbonyl)-ethyl]-amide], the half-maximal inhibitory concentration (IC50) turned out to be 27 nM.
To `COc1ccnc(-c2cnc3[nH]cc(C(=O)N[C@@H](C(=O)N4CCC(C#N)CC4)C(C)(C)C)c3n2)c1` [Example I-127, 2-(4-Methoxy-pyridin-2-yl)-5H-pyrrolo[2,3-b]pyrazine-7-carboxylic acid [(R)-1-(4-cyano-piperidine-1-carbonyl)-2,2-dimethyl-propyl]-amide] belongs 3.56 nM.
In the case of `N#CC1CCN(C(=O)[C@H](NC(=O)c2c[nH]c3ncc(-c4cn(-c5ccccc5)nn4)nc23)C2CC2)CC1` [Example I-108, 2-(1-Phenyl-1H-[1,2,3]triazol-4-yl)-5H-pyrrolo[2,3-b]pyrazine-7-carboxylic acid [(R)-2-(4-cyano-piperidin-1-yl)-1-cyclopropyl-2-oxo-ethyl]-amide], the concentration for half-maximal inhibition (IC50) was 6.05 nM.
For the compound `CCn1cc(-c2cnc3[nH]cc(C(=O)N[C@@H](CC(F)(F)F)C(=O)N4CCC(C#N)CC4)c3n2)cn1` [Example I-105, 2-(1-Ethyl-1H-pyrazol-4-yl)-5H-pyrrolo[2,3-b]pyrazine-7-carboxylic acid [(S)-1-(4-cyano-piperidine-1-carbonyl)-3,3,3-trifluoro-propyl]-amide], the 50% inhibitory concentration (IC50) is 2260 nM.
The same measure for `C[C@@H](NC(=O)c1c[nH]c2ncc(C3CC3)nc12)C(=O)N1CC2(COC2)C1` [Example I-24, 2-Cyclopropyl-5H-pyrrolo[2,3-b]pyrazine-7-carboxylic acid [(R)-1-methyl-2-(2-oxa-6-aza-spiro[3.3]hept-6-yl)-2-oxo-ethyl]-amide]: 72.8 nM; for `CC(C)(C)[C@@H](NC(=O)c1c[nH]c2ncc(C3CC3)nc12)C(=O)N1CCc2ccccc21` [Example I-138, 2-Cyclopropyl-5H-pyrrolo[2,3-b]pyrazine-7-carboxylic acid [(R)-1-(2,3-dihydro-indole-1-carbonyl)-2,2-dimethyl-propyl]-amide]: 19.1 nM.
The same measure for `CC1CCN(C(=O)[C@@H](C)NC(=O)c2c[nH]c3ncc(C4CC4)nc23)C1` (stereo partly drawn) [Example I-15, 2-Cyclopropyl-5H-pyrrolo[2,3-b]pyrazine-7-carboxylic acid [(R)-1-methyl-2-(3-methyl-pyrrolidin-1-yl)-2-oxo-ethyl]-amide]: 54.9 nM; for `CC(C)(C)[C@@H](NC(=O)c1c[nH]c2ncc(OC3CCCCC3)nc12)C(=O)N1CCC(C#N)CC1` [Example I-90, 2-Cyclohexyloxy-5H-pyrrolo[2,3-b]pyrazine-7-carboxylic acid [(R)-1-(4-cyano-piperidine-1-carbonyl)-2,2-dimethyl-propyl]-amide]: 9.73 nM.
For the compound `CC(C)(C)c1ccnc(-c2cnc3[nH]cc(C(=O)N[C@@H](C(=O)N4CCC(C#N)CC4)C4CC4)c3n2)c1` [Example I-145, 2-(4-tert-Butyl-pyridin-2-yl)-5H-pyrrolo[2,3-b]pyrazine-7-carboxylic acid [(R)-2-(4-cyano-piperidin-1-yl)-1-cyclopropyl-2-oxo-ethyl]-amide], the IC50 stood at 15.2 nM.
To `CC(C)(C)[C@@H](NC(=O)c1c[nH]c2ncc(C3CC3)nc12)C(=O)N1CCC(F)(F)CC1` [Example I-52, 2-Cyclopropyl-5H-pyrrolo[2,3-b]pyrazine-7-carboxylic acid [(R)-1-(4,4-difluoro-piperidine-1-carbonyl)-2,2-dimethyl-propyl]-amide] belongs 440 nM; to `CC(C)(C)[C@@H](NC(=O)c1c[nH]c2ncc(-c3cn(C4CCCC4)cn3)nc12)C(=O)N1CCC(C#N)CC1` [Example I-120, 2-(1-Cyclopentyl-1H-imidazol-4-yl)-5H-pyrrolo[2,3-b]pyrazine-7-carboxylic acid [(R)-1-(4-cyano-piperidine-1-carbonyl)-2,2-dimethyl-propyl]-amide], 3.7 nM.
To `C[C@@H](NC(=O)c1c[nH]c2ncc(-c3cc(-n4cccn4)ccn3)nc12)C(=O)N1CC(C#N)C1` [Example I-152, 2-(4-Pyrazol-1-yl-pyridin-2-yl)-5H-pyrrolo[2,3-b]pyrazine-7-carboxylic acid [(R)-2-(3-cyano-azetidin-1-yl)-1-methyl-2-oxo-ethyl]-amide] belongs 9.52 nM; to `CC(C)Oc1cnc2[nH]cc(C(=O)N[C@@H](C(=O)N3CCC(C#N)CC3)C(C)(C)C)c2n1` [Example I-94, 2-Isopropoxy-5H-pyrrolo[2,3-b]pyrazine-7-carboxylic acid [(R)-1-(4-cyano-piperidine-1-carbonyl)-2,2-dimethyl-propyl]-amide], 3.66 nM.
To `C[C@@H](NC(=O)c1c[nH]c2ncc(-c3cc(-n4cccc4)ccn3)nc12)C(=O)N1CC(C#N)C1` [Example I-153, 2-(4-Pyrrol-1-yl-pyridin-2-yl)-5H-pyrrolo[2,3-b]pyrazine-7-carboxylic acid [(R)-2-(3-cyano-azetidin-1-yl)-1-methyl-2-oxo-ethyl]-amide] belongs 9.02 nM.
Turning to `CC(C)(C)[C@@H](NC(=O)c1c[nH]c2ncc(C3CC3)nc12)C(=O)N1CCC(C(F)(F)F)CC1` [Example I-58, 2-Cyclopropyl-5H-pyrrolo[2,3-b]pyrazine-7-carboxylic acid [(R)-2,2-dimethyl-1-(4-trifluoromethyl-piperidine-1-carbonyl)-propyl]-amide], the half-inhibitory concentration (IC50) stood at 0.49 nM.
To `COc1cc(-c2cnc3[nH]cc(C(=O)N[C@@H](C(=O)N4CCC(C#N)CC4)C(C)(C)C)c3n2)cc(OC)c1OC` [Example I-64, 2-(3,4,5-Trimethoxy-phenyl)-5H-pyrrolo[2,3-b]pyrazine-7-carboxylic acid [(R)-1-(4-cyano-piperidine-1-carbonyl)-2,2-dimethyl-propyl]-amide] belongs 94.9 nM.
In the case of `O=C(N[C@@H](C(=O)N1CC2(COC2)C1)C1CC1)c1c[nH]c2ncc(C3CC3)nc12` [Example I-84, 2-Cyclopropyl-5H-pyrrolo[2,3-b]pyrazine-7-carboxylic acid [(R)-1-cyclopropyl-2-(2-oxa-6-aza-spiro[3.3]hept-6-yl)-2-oxo-ethyl]-amide], the IC50 turned out to be 0.75 nM.
